# Values of other authors, collected in patent US20020025341A1, “Controlled release formulation of divalproex sodium” (priority 1998, published 2002).
# Read-outs that look alike come from different tables or passages of the source.
# Tests used:
# [1] = patients consuming valproate
SMILES,free fraction (plasma protein binding) (plasma proteins; at 40 μg/ml),free fraction (plasma protein binding) (plasma proteins; at 130 μg/ml),patients affected by GI irritation [1],half life (in adults),half life (in children)
CCCC(CCC)C(=O)O [valproate],approximately 10%,18.5%,up to one third of patients,–,–
"CCCC(CCC)C(=O)O [valproic acid, 2-Propylpentanoic acid]",–,–,–,between six and seventeen hours,between four and fourteen hours
